Measurements: patent publication US20230123585A1, “COMPOSITIONS AND METHODS FOR TREATING OR PREVENTING CANCER USING DEUBIQUITINASE INHIBITORS” (The University of Chicago, priority 2020, published 2023)

Key:
ubiquitination of METTL3 = experiment: Ubiquitination of METTL3 in A375 cells transfected with HA-ubiquitin (IP anti-METTL3, immunoblot anti-HA); type: cell-based, human; conditions: 10 μM MG-132 and 10 μM EOAI3402143 or 30 μM vialinin A for 8 h
Method: (§1) FIGS. 11A-11G: USP5 is Required for ERK-Mediated METTL3 Stabilization. (A) A375 cells transfected with HA-ubiquitin (ub) were treated with 10 μM MG-132 and MEK inhibitor PD0325901 for 8 h. The ubiquitination of METTL3 was detected by IP with anti-METTL3 and immunoblot with anti-HA. (B) After 8 h treatment with 10 μM PD0325901 with or without 10 μM MG-132, cell lysates from A375 cells were analyzed by immunoblot. (C) A375 cells were treated with various concentrations of PD0325901 for 1 h. Cell lysates were subjected to IP with METTL3 antibody followed by immunoblot. (D) 293T cells transfected as indicated were subjected to IP/immunoblot analysis. (E) Immunofluorescence analysis of myc-METTL3 (green) in mESC stable transfectants. DAPI (blue) was used to mark the nucleus. (F) Lysates of 293T cells transfected as indicated were subjected to IP with anti-Flag antibody followed by immunoblot. (G) Immunofluorescence analysis of 293T cells co-transfected with myc-METTL3 (green), Flag-USP5 (red) with or without constitutively active B-RAF.
FIGS. 14A-14I: Phosphorylation of the m^6A Methyltransferase Complex May Affect Tumorigenesis. […] (B) LC-MS/MS quantification of the m^6A/A ratio in mRNA of melanoma cell lines. (C) After 8 h treatment with 10 μM PD0325901 or 0.1 μM tramentib, cell lysates from HCT-116 cells were analyzed by immunoblot. […] The ubiquitination of METTL3 was detected by IP with anti-METTL3 and immunoblot with anti-HA. (F) After 8 hr treatment with 10 μM EOAI3402143 (EOAI) or 30 μM vialinin A, cell lysates from HCT-116 cells were analyzed by immunoblot. […] (I) LC-MS/MS quantification of the m^6A/A ratio in mRNA of breast cancer cell lines.
Immunoprecipitation, immunoblotting, and in vitro kinase assay. […] Primary antibodies were detected by HRP-linked secondary antibodies (Cell Signaling) together with SuperSignal West Pico Plus chemiluminescent substrate (Thermo Scientific) and imaged in a FluorChem R system (ProteinSimple).

[1] = test system: METTL3 / m^6A methyltransferase complex in A375 cells; experiment: Immunoblot of METTL3 / m^6A methyltransferase complex protein in A375 cell lysates; type: cell-based, human; conditions: A375 cells (also HCT-116, FIG. 14F), 8 hr, 10 μM EOAI3402143 or 30 μM vialinin A
Method: (§2) FIGS. 6A-6H: Phosphorylation of the m^6A Methyltransferase Complex May Affect Tumorigenesis. (A) Lysates of A375 stable transfectants harvested at different time points after treatment with cycloheximide (CHX) 10 μg/ml were analyzed by immunoblot. (B) LC-MS/MS quantification of the m^6A/A ratio in mRNA of A375 stable transfectants. (C) After 8 h treatment with 10 μM PD0325901 or 0.1 μM tramentib, cell lysates from A375 cells were analyzed by immunoblot. (D) LC-MS/MS quantification of the m^6A/A ratio in mRNA of A375 cells treated with 10 μM PD0325901 or 0.1 μM tramentib for 48 h. (E) After 8hr treatment with 10 μM EOAI3402143 (EOAI) or 30 μM vialinin A , cell lysates from A375 cells were analyzed by immunoblot. (F) A375 stable transfectants as indicated were treated with 3 μM EOAI3402143 (EOAI) or 10 μM vialinin A before measuring cell viability by SRB assay. Data are presented as relative to the R-WT cells without drug treatment (n=3 per group, data represent mean±SEM). (G) Immunofluorescence analysis of METTL3 (green) in SKBR3 cells treated with 1 μM tucatinib and 1 μM lapatinib for 8 hr. DAPI (blue) was used to mark the nucleus. (H) LC-MS/MS quantification of the m^6A/A ratio in mRNA of SKBR3 and BT474 cells treated with 1 μM tucatinib and 1 μM lapatinib for 48 h. (See also FIG. 14.)
as §1
Immunoprecipitation, immunoblotting, and in vitro kinase assay. Immunoprecipitation (IP) and immunoblotting (IB) were performed as previously described (Sun et al., 2016). In brief, protein samples were isolated from respective cells by lysis in RIPA buffer (1% Triton X-100, 150 mM NaCl, 20 mM Na2PO4, pH 7.4) containing Halt Protease and Phosphatase Inhibitor Cocktail (Thermo Scientific). Subsequently, a BCA assay (Thermo Scientific) was used to determine the protein concentrations. For IP, indicated antibody and protein A/G magnetic beads (Thermo Scientific) were incubated with lysate at 4° C. overnight followed by washing and elution with sample buffer. Equal amounts of protein were separated by SDS-PAGE followed by wet transfer to PVDF membranes. Blots were blocked with 5% non-fat milk or BSA and incubated with respective primary antibody at 4° C. overnight. Primary antibodies were detected by HRP-linked secondary antibodies (Cell Signaling) together with SuperSignal West Pico Plus chemiluminescent substrate (Thermo Scientific) and imaged in a FluorChem R system (ProteinSimple).

[2] = test system: A375 and HCT-116 stable transfectants; experiment: Cell viability by SRB assay of A375 and HCT-116 stable transfectants treated with USP5 inhibitors; type: cell-based; conditions: A375 1 μM, HCT-116 2 μM EOAI, 48 hr
Method: as §2, with “(F) A375 stable transfectants as indicated were treated with 3 μM EOAI3402143 (EOAI) or 10 μM vialinin A before measuring cell viability by SRB assay. Data are presented as relative to the R-WT cells without drug treatment (n=3 per group, data represent mean±SEM). (G) Immunofluorescence analysis of METTL3 (green) in SKBR3 cells treated with 1 μM tucatinib and 1 μM lapatinib for 8 hr. DAPI (blue) was used to mark the nucleus.” left out, “(See also FIG. 14.)” left out
FIGS. 14A-14I: Phosphorylation of the m^6A Methyltransferase Complex May Affect Tumorigenesis. […] (B) LC-MS/MS quantification of the m^6A/A ratio in mRNA of melanoma cell lines. (C) After 8 h treatment with 10 μM PD0325901 or 0.1 μM tramentib, cell lysates from HCT-116 cells were analyzed by immunoblot. […] The ubiquitination of METTL3 was detected by IP with anti-METTL3 and immunoblot with anti-HA. (F) After 8 hr treatment with 10 μM EOAI3402143 (EOAI) or 30 μM vialinin A, cell lysates from HCT-116 cells were analyzed by immunoblot. […]

A375 and HCT116 cells = experiment: Cell viability by SRB assay of A375 and HCT116 cells treated with Ezh2 inhibitors without or with EOAI; type: cell-based; conditions: 48 hr; A375: GSK343 10 μM, UNC1999 5 μM, 0.5 μM EOAI; HCT116: GSK343 10 μM, UNC1999 10 μM, 1 μM EOAI
Method: FIGS. 20A-20B: (A) A375 cells were treated with GSK343 10 μM, UNC1999 5μM without or with 0.5 μM EOAI3402143 (EOAI) for 48 hr before measuring cell viability by SRB assay. Data are presented as relative to the R-WT cells without drug treatment (n=3 per group, data represent mean±SEM). (B) HCT116 cells were treated with GSK343 10 μM, UNC1999 10 μM without or with 1 μM EOAI3402143 (EOAI) for 48 hr before measuring cell viability by SRB assay. Data are presented as relative to the R-WT cells without drug treatment (n=3 per group, data represent mean±SEM).
Cell Proliferation Assay. Cells were seeded in 96-well plates. The cell proliferation was assessed by SRB assay (Vichai and Kirtikara, 2006) at various time points. Briefly, cells after treatments were fixed with 10% TCA then stained with 0.05% SRB. After wash, bound SRB was solubilized with 10 mM Trizma base and measured at 515 nm.

[3] = test system: polyA RNA m^6A in JQ1-sensitive cells (Mia cell); experiment: polyA RNA m^6A level upon JQ1 treatment in JQ1-sensitive PDAC cells; type: cell-based
Source text: (§3) FIGS. 15A-15D: The results of the inhibition rates of JQ1 in different PDAC cell lines. (B) The correlation analysis of gene expression of BRD family genes and METTL3 in PDAC from TGCA and GTEx database. (C) The polyA RNA m6A level changes upon JQ1 treatment compared to the DMSO control in different PDAC cell lines. (D) The cell viability changes with JQ1 treatment with a series concentrations in the JQ1-insensitive cells upon the knockdown of METTL3 and the JQ1-sensitive cells upon the overexpression of METTL3 compared to control. […]
(§4) LC-MS/MS quantification of m^6A in poly(A) RNA. mRNA was extracted from the total RNA using 2 rounds of the Dynabeads mRNA purification kit. […] The nucleosides were quantified by using the nucleoside-to-base ion mass transitions of 282 to 150 (m^6A) and 268 to 136 (A). Quantification was carried out by comparison with a standard curve obtained from pure nucleoside. The ratio of m^6A to A was calculated based on the calibrated concentrations (Liu et al., 2018).

[4] = test system: JQ1-insensitive PDAC cells; experiment: Cell viability with JQ1 in JQ1-insensitive cells upon knockdown of METTL3; type: cell-based; conditions: series of JQ1 concentrations
Source text: (§5) FIGS. 15A-15D: The results of the inhibition rates of JQ1 in different PDAC cell lines. (B) The correlation analysis of gene expression of BRD family genes and METTL3 in PDAC from TGCA and GTEx database. (C) The polyA RNA m6A level changes upon JQ1 treatment compared to the DMSO control in different PDAC cell lines. (D) The cell viability changes with JQ1 treatment with a series concentrations in the JQ1-insensitive cells upon the knockdown of METTL3 and the JQ1-sensitive cells upon the overexpression of METTL3 compared to control.

METTL3 in 8902 cell line = experiment: METTL3 RNA and protein level changes with JQ1 treatment in JQ1-insensitive cells; type: cell-based; conditions: 8902 cell line (JQ1-insensitive)
Source text: (§6) FIGS. 16A-16B: (A) The protein level changes of METTL3 with JQ1 treatment in the JQ1-insensitive cells compared to DMSO control (left); the RNA level changes of METTL3 the JQ1-insensitive cells with JQ1 treatment compared to DMSO control (mid); the polyA RNA m6A level changes in JQ1-insensitive cells among the knockdown control and DMSO control samples, the knockdown control and JQ1 treatment samples, the METTL3 knockdown and DMSO control, and the METTL3 knockdown and JQ1 treatment samples (right). (B) The protein level changes of METTL3 with JQ1 treatment in the JQ1-sensitive cells compared to DMSO control (left); the RNA level changes of METTL3 the JQ1-sensitive cells with JQ1 treatment compared to DMSO control (mid); the polyA RNA m6A level changes in JQ1-sensitive cells among the knockdown control and DMSO control samples, the knockdown control and JQ1 treatment samples, the METTL3 knockdown and DMSO control, and the METTL3 knockdown and JQ1 treatment samples (right).

METTL3 in Mia cell = experiment: METTL3 RNA and protein level changes with JQ1 treatment in JQ1-sensitive cells; type: cell-based; conditions: dose-dependent
Source text: as §6

JQ1-sensitive PDAC cells = experiment: Cell viability with JQ1 in JQ1-sensitive cells upon overexpression of METTL3; type: cell-based; conditions: series of JQ1 concentrations
Source text: as §5

PDAC cell lines = experiment: Inhibition rates of JQ1 in a panel of 9 PDAC cell lines; type: cell-based
Source text: as §5

[5] = test system: polyA RNA m^6A in JQ1-insensitive cells (8902 cell line); experiment: polyA RNA m^6A level upon JQ1 treatment in JQ1-insensitive PDAC cells; type: cell-based
Source text: as §3, §4

## CCCC(NC(=O)/C(C#N)=C/c1nc(Cl)ccc1Cl)c1ccc(OCCN2CCOCC2)cc1 (centres unmarked) [EOAI3402143]
Ubiquitination of METTL3
  ubiquitination of METTL3: increased
[1]
  METTL3 protein level: decreased
[2]
  effect of knockdown of METTL3 on sensitivity of cells to the USP5 inhibitor: sensitized
  effect of overexpression of METTL3 on sensitivity of cells to the USP5 inhibitor: attenuated

## CCCc1cc(C)[nH]c(=O)c1CNC(=O)c1cc(-c2ccnc(N3CCN(C)CC3)c2)cc2c1cnn2C(C)C [GSK343]
A375 and HCT116 cells
  combination effect on cell viability with the USP5 inhibitor EOAI: synergism

## Cc1sc2c(c1C)C(c1ccc(Cl)cc1)=N[C@@H](CC(=O)OC(C)(C)C)c1nnc(C)n1-2 [JQ1]
[3]; JQ1-sensitive PDAC cells, versus DMSO control
  polyA RNA m^6A: dramatically decreased
[3]; Mia cell (JQ1-sensitive), dose-dependent
  polyA RNA m^6A level: dramatic decreases
[4]
  viability of JQ1-insensitive cells, knockdown of METTL3 together with JQ1 treatment: synergistically reduce
METTL3 in 8902 cell line
  METTL3 RNA level: moderate effect
  METTL3 protein level: less of an effect
METTL3 in Mia cell
  METTL3 RNA level: dramatic decreases
  METTL3 protein level: dramatic decreases
JQ1-sensitive PDAC cells
  effect of JQ1 treatment upon overexpression of METTL3 in JQ1-sensitive cell: inhibits
PDAC cell lines
  inhibition effect (anticancer activity): varies among different cell types
[5]; 8902 cell line (JQ1-insensitive)
  polyA RNA m^6A, JQ1 treatment after METTL3 knockdown: further reduced
[5]; JQ1-insensitive PDAC cells, versus DMSO control
  polyA RNA m^6A changes: moderate to negligible

## CCCc1cc(C)[nH]c(=O)c1CNC(=O)c1cc(-c2ccc(N3CCN(C(C)C)CC3)nc2)cc2c1cnn2C(C)C [UNC199]
A375 and HCT116 cells
  combination effect on cell viability with the USP5 inhibitor EOAI: synergism
